“And” between values parts separate entries of the source, which are not always exact repeats. Equal entries are not always repeated.
What was measured:
Type in all cases: cell-based
320 non-olfactory GPCRs [1] = biological target: T1, 320 non-olfactory GPCRs (Homo sapiens, UniProt P32245); conditions: receptor MC4R; replicate values, Fig_4g
T1 construct: expressed in transfected cells; host or cells: HTLA cells

320 non-olfactory GPCRs [2] = biological target: T2, 320 non-olfactory GPCRs (Homo sapiens, UniProt P48146); conditions: receptor NPBW2; replicate values, Fig_4g
T2 construct: expressed in transfected cells; host or cells: HTLA cells
T2 sequence (P48146 whole entry): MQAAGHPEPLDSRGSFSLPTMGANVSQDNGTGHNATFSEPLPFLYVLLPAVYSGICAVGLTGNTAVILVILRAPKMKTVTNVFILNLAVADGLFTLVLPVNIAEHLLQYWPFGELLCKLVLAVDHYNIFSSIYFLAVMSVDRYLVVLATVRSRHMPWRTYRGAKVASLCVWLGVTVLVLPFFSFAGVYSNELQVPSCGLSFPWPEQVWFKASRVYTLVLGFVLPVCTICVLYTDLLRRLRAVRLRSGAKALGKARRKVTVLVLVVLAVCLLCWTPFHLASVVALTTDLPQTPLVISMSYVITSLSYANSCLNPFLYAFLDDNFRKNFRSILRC

320 non-olfactory GPCRs [3] = biological target: T3, 320 non-olfactory GPCRs (Homo sapiens, UniProt P30556)
T3 construct: expressed in transfected cells; host or cells: HTLA cells
T3 sequence (P30556 whole entry): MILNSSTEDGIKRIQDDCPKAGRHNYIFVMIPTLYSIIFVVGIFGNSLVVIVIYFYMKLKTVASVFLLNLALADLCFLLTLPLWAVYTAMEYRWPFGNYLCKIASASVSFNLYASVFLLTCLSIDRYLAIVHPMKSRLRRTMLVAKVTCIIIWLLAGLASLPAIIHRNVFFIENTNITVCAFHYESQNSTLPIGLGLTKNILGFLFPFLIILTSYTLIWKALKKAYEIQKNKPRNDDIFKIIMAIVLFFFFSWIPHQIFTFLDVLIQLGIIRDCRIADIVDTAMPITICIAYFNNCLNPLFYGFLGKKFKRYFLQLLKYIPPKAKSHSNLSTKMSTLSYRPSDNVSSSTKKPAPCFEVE

320 non-olfactory GPCRs [4] = biological target: T4, 320 non-olfactory GPCRs (Homo sapiens, UniProt P46092)
T4 construct: expressed in transfected cells; host or cells: HTLA cells
T4 sequence (P46092 whole entry): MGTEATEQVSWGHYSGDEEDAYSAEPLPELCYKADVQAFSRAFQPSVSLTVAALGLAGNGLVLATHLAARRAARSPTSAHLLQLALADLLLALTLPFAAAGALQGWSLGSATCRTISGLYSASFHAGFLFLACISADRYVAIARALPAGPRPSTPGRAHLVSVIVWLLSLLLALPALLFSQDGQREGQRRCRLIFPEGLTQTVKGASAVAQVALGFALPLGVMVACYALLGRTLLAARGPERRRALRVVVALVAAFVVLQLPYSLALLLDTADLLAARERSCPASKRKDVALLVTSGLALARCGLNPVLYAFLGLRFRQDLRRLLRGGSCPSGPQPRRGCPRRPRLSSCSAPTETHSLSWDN
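For Fold of Basal in this document: compound tested at 1 µM final concentration.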
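For GPCRome agonism screen response in this document: fold over basal response of each receptor without drug.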

T1 sequence (P32245 whole entry): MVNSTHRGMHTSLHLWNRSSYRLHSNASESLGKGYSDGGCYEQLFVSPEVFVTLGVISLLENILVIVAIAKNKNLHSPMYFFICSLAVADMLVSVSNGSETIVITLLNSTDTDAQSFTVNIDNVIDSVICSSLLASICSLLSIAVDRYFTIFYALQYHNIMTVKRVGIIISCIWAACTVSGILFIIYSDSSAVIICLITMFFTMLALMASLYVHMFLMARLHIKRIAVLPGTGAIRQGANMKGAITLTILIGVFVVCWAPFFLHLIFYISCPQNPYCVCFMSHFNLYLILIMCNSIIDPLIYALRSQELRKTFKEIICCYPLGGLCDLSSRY

With CCOc1cccc2cc(C(C)NCC3(O)CCCCC3)oc12 (stereo not shown) [O4LE6] the “GPCRome agonism screen response” value (320 non-olfactory GPCRs [1]) was 0.7124 and 0.7559 and 1.4135 and 1.293, the “GPCRome agonism screen response” value (320 non-olfactory GPCRs [2]) was 0.5262 and 0.8272 and 1.363 and 1.562 and the “Fold of Basal” value (320 non-olfactory GPCRs [3]) was 1.668 and 2.301 and 2.105 and 2.204. The “Fold of Basal” value (320 non-olfactory GPCRs [4]) was 0.7929 and 1.009 and 0.769 and 1.275.

Reference: publication PMC7044277 (Nature Communications, 2020)
